A short description of data set [1]: Water-octanol partition coefficient (stir-flask method). It counts as physicochemical. The settings on record: 24 h shaking, 37°C. As to the method: The water-octanol partition coefficients were determined by use of the stir-flask method. The complex was added in a mixture with equal volumes of water and octanol shaking by 24 h at 100 rpm and 37°C, samples were centrifuged for 5min at 300rpm, the organic and aqueous phases were separated. The concentration of drug in each phase was measured spectrophotometrically in order to determine values of P = [drug] (in octanol)/[drug] (in water).

In a further data set the test system is MDA-MB-231 cells. As to the kind of experiment: Wound healing migration assay. It counts as cell-based, human. To be noted: 5, 10 and 20 μM, 24 and 48 h. As to the method:
The effects of complex (4) on tumor cell migration was investigated by two methods, wound healing and transwell assays using Boyden chambers. For wound healing, MDA-MB-231 cells (2 x10^5/mL) were plated in 12-wells plates and incubated properly until the culture reached 100% of confluence. Afterwards, a straight scratch was made with a sterile pipette tip and cells were washed with culture medium to remove unbound cells and debris. Cells were incubated with complex (4) 5, 10 and 20 μM for 24 and 48 h. Cells were viewed using an inverted microscope (Nikon, T5100) at 40× total magnification and images were captured (Moticam, 1000-S camera) at 0 h, 24 h and 48 h. Closure area of migrating cells was measured using Image J software, and the percentage of wound closure was calculated, comparing time zero and 48 h, using a formula from Yue and co-workers.
% wound closure=(At=0h−At=Δh)/(At=0h)x (100)

In a further data set the test system is MMP-9. As to the kind of experiment: Gelatin zymography of wound healing supernatants. Format: cell-based, human. The settings on record: 24 h. As to the method:
MDA-MB-231 cells (1.0 x 10^5/well) were seeded into 12-wells culture plates and cultured in a medium containing FBS 10% to near confluence (80%) of the cell monolayer. Monolayers were carefully wounded using a pipette tip, and any cellular debris present was removed by washing with PBS. The wounded monolayers were then incubated in serum-free medium containing 2.5, 5, 10 and 20 μM of complex (4) for 24 h. After this time, supernatants of the wound healing assay were collected and tested for MMP secretion as previously described. Briefly, equal amounts of total protein ([…]) were subjected to electrophoresis. Zymography gels consisted of 10% polyacrylamide impregnated with gelatin at a final concentration of 1% in the presence of sodium dodecyl sulfate (SDS) under non-reducing conditions. […] Gels were then stained with coomassie brilliant blue for 30 min and destained in methanol and acetic acid for 20 min. Gelatin degrading enzymes were visualized as clear white bands against a blue background, indicating proteolysis of the substrate protein. The molecular mass of gelatinolytic activities was determined by comparison to reference protein molecular mass marker PageRuler Prestained Protein Ladder (Thermo Fisher Scientific). Activity bands were identified following the previous description according to their molecular weights.

The subject of data set [2] is Bax, Caspase-3 and Bcl-2 gene expression in MDA-MB-231 cells. The data set is described as follows: RT-qPCR of apoptosis related genes. Format: cell-based, human. To be noted: 40 μM, 3 h. Here is the method: MDA-MB-231 cells (1.0 x 10^6/plate) were incubated for 3 h with (20 and 40 μM) or without (control) the complex (4) in Petri dishes (6 cm) at 37°C in a humidified incubator with 5% CO2. Total RNA was extracted using Trizol reagent (Invitrogen). cDNAs were synthesized using Enhanced Avian RT First Strand Synthesis kit (Sigma-Aldrich, St. Louis, MO, USA). A Rotor-Gene 6000 real-time rotary analyzer (Corbett Life Science, Australia) was used to amplify both target and internal control templates (1 cycle at 95°C for 5 min and 40 amplification cycles at 95°C for 30 sec, 55°C for 30sec and 72°C for 45sec). In brief, 1 μL of reverse transcribed product template, 5 μL of SYBR Green JumpStart Taq ReadyMix (Sigma-Aldrich) and the gene-specific primer pairs at a final concentration of 500 nmol l^-1 for each primer, made 10 μL of reaction system. Primers used in the assays were: Caspase-3 (Forward: 5’GTG CTA CAA TGC CCC TGG AT3’; Reverse: 5’GCCCATTCATTTATTGCTTTC C3’), Bax (Forward: 5’CAT CCA GGA TCG AGC AGG3’; Reverse: 5’CGA TGC GCT TGA GAC ACT C3), Bcl-2 (Forward: 5’GGT GGG AGG GAG GAA GAA T3’; Reverse: 5’GCA GAG GCA TCA CAT CGA C3’) and β-actin (Forward: 5’GACGGCCAGGTCATCACCATT G3’; Reverse: 5’AGCACTGTGTTGGCGTACAGG 3’). Bax primers (NM_001291428.1) and Bcl-2 (NM_000633.2) were designed with Gene Runner available at http://generunner.net/ (version5.0.63 Beta), except for the primer Caspase-3 (NM_004346.3). For each gene, all samples were amplified simultaneously in duplicate in one assay run. The internal calibrator used as a basis to standardize the results of expression was the control group ΔCts average. Calibration was determined by ΔΔCt = ΔCt (sample) − ΔCt (calibrator). Gene expression was assessed by relative quantification, using the formula 2-ΔΔCt and β-actin as internal control. Data represent three assays in duplicate. A blank with water, primers and SYBR Green instead of template sample was performed.

In data set [3] the test system is Caspase-3, Caspase-9 and Bcl-2 protein levels in MDA-MB-231 cells. The data set is described as follows: Western blotting of apoptosis related proteins. Format: cell-based, human. To be noted: even at 2.5 μM, 6 h. As to the method: MDA-MB-231 cells (1.0 x 10^6/plate) were incubated for 6 h with (2.5, 5 and 10μM) or without (control) the complex (4) in Petri dishes (6 cm) at 37°C in a humidified incubator with 5% CO2. After incubation, cells were lysed using RIPA buffer (150 mM NaCl; 50 mM Tris-HCl pH 7.4; 50 mM NaF; 2 mM EDTA; 1.0% NP-40; 0.5 mM Na-deoxycholate; 0.1% SDS, pH 8.0) and the content was transferred to a 1.5 mL microtube. Protein concentrations of supernatants were determined using DC Protein Assay kit (Bio-Rad). […] Beta-actin was used as endogenous control. Substrate development was performed using SuperSignal West Dura Extended Substrate reagent (Thermo Scientific). Specific bands were visualized with ChemiDoc MP imager (BioRad Laboratories) and quantified with Image J software, normalized to β-actin.

`CC(=O)[O-].F[P-](F)(F)(F)(F)F.[Ru+2].c1ccc(-c2ccccn2)nc1.c1ccc(P(CCCCP(c2ccccc2)c2ccccc2)c2ccccc2)cc1` [Complex (4), [Ru(CH3CO2)(dppb)(bipy)]PF6]: the log partition coefficient (Log P) in data set [1] turned out to be 0.77 ± 0.03. For the same compound, in the data set with MDA-MB-231 cells, the “effect on cell migration (wound healing)” value is “inhibited MDA-MB-231 cell migration in a concentration dependent fashion”. The “inhibition of expression of MMP-9 compared to untreated control” value with MMP-9 (20 μM) is given as 60%. Moreover, the “effect on expression of MMP-9” value in the data set on MMP-9 (2.5, 5 and 10 μM) is reported as “did not inhibit the expression of MMP-9”. Also, in data set [2], the Bax gene expression entry is “upregulated”, the Bcl-2 gene expression entry is recorded as “did not affect” and the Caspase-3 gene expression result is given as “upregulated”. For the same compound, in data set [3], the “cleaved Caspase-3 protein levels” value is listed as “increased” and the “cleaved Caspase-9 protein levels” value is reported as “increased”.

Source of the values: paper PMC5595280, “Cytotoxicity and anti-tumor effects of new ruthenium complexes on triple negative breast cancer cells” (PLoS ONE, 2017).
